Common to all, as to type: physicochemical
Series [1] is described as follows: Chemical stability in sodium phosphate buffer assessed as half life at pH 6.5 at 37 degC.
The nature of series [2]: Chemical stability in sodium acetate buffer assessed as half life at pH 5.0 at 37 degC.
Series [3] can be described thus: Chemical stability in sodium acetate buffer assessed as half life at pH 4.0 at 37 degC.
Series [4] can be described thus: Chemical stability in sodium phosphate buffer assessed as half life at pH 7.4 at 37 degC.
Series [5] in a line: Chemical stability in sodium phosphate buffer assessed as half life at pH 6.0 at 37 degC.
Series [6] is described as follows: Chemical stability in sodium acetate buffer assessed as half life at pH 5.6 at 37 degC.
Series [7] in a line: Chemical stability in sodium acetate buffer assessed as half life at pH 4.5 at 37 degC.
Series [8] is described as follows: Chemical stability in sodium acetate buffer assessed as half life at pH 5.4 at 37 degC.

From ChEMBL document CHEMBL1154999, “N-(2,2-Dimethyl-2-(2-nitrophenyl)acetyl)-4-aminocyclophosphamide as a potential bioreductively activated prodrug of phosphoramide mustard” (Bioorg Med Chem Lett, 2008) come the findings set out here.

SMILES strings stand for the structures.

As a reminder, the half-life is the time in which the quantity being followed falls by half. In the case of `CC(C)(C(=O)NC1CCOP(=O)(N(CCCl)CCCl)N1)c1ccccc1N` (stereo not drawn), the half-life in series [1] was 19.3 min; in series [2], 9.8 min; in series [3], 3.2 min; in series [4], 53.7 min; in series [5], 12.6 min; in series [6], 27.2 min. Also, the figures for the half-life in series [7] and in series [8] were 4.9 min and 17.5 min, respectively.
